According to US20020002171A1, “Materials and methods for killing nematodes and nematode eggs” (priority 2000, published 2002):

system: Caenorhabditis elegans; experiment: C. elegans L1 nematicidal dose response in 96-well plates, 5 day visual score (Example 2; same procedure for Example 7, Table 3); assay type: in vivo; parameters: key to 5 Day Visual Score V1 / 5 Day Visual Score V2 / 5 Day Visual Score V3 / 5 Day Visual Score V4 / 5 Day Visual Score V6 / 5 Day Visual Score V5 / Initial HTS Run Visual Score / Follow-up HTS Run Visual Score: Dead: only stiff L1s (no movement); Dead (L4): worms are dead, but at a later larval stage; majority of worms are L1 (based on size) worms move when plate is tapped; majority of worms are L2 (based on size); majority of worms are L3 (based on size); majority of worms are L4 (based on size); AD: majority of worms are adult; #AD: 5 adult worms or less; B!: sterile (0-25 progeny); B: low broodsize (25-100 progeny); ˜B: moderate broodsize (100-250 progeny); <: reduced broodsize (250-500 progeny); OK: no effect (˜1000+ progeny); details: Follow-up HTS run
Method in brief: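 L1 larvae, 20 per well in NGM with 1% E. coli HB101 and antibiotic/antimycotic, exposed to six 3-fold dilutions from 70 μM down to 0.3 μM (1.4% DMSO at top). Held at 20° C; viability scored visually under 100× dissecting microscope on day 5.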

SMILES	Follow-up HTS Run % Run	Follow-up HTS Run mOD	Follow-up HTS Run Visual Score
CCN(Cc1ccccc1)c1nc(NCc2ccccc2)ns1 [compound 326]	110%	177 mOD	–
C=CCN(CC=C)c1nc(NCc2ccccc2)ns1 [compound 327]	106%	171 mOD	–
CN(Cc1ccccc1)c1nc(NCc2ccccc2)ns1 [compound 328]	121%	195 mOD	–
Cc1cccc(C)c1N1CCN(c2nc(NC3CCCCCCCCCCC3)ns2)CC1 [compound 329]	78%	125 mOD	Dead
CCCCCCCCCCCCCCCCCCN(C)c1nc(NC2CCCCCCCCCCC2)ns1 [compound 330]	56%	90 mOD	Dead
CCCCC(CC)CN(CC(CC)CCCC)c1nc(NC2CCCCCCCCCCC2)ns1 (centres unmarked) [compound 331]	85%	137 mOD	Dead

same assay, conditions: Initial HTS run

SMILES	Initial HTS Run % Run	Initial HTS Run mOD	Initial HTS Run Visual Score
CCN(Cc1ccccc1)c1nc(NCc2ccccc2)ns1 [compound 326]	95%	105 mOD	–
C=CCN(CC=C)c1nc(NCc2ccccc2)ns1 [compound 327]	105%	115 mOD	L2/L3(Dead L3)
CN(Cc1ccccc1)c1nc(NCc2ccccc2)ns1 [compound 328]	120%	132 mOD	–
Cc1cccc(C)c1N1CCN(c2nc(NC3CCCCCCCCCCC3)ns2)CC1 [compound 329]	100%	110 mOD	Dead (L2/L3)
CCCCCCCCCCCCCCCCCCN(C)c1nc(NC2CCCCCCCCCCC2)ns1 [compound 330]	107%	118 mOD	Dead (L2/L3)
CCCCC(CC)CN(CC(CC)CCCC)c1nc(NC2CCCCCCCCCCC2)ns1 (centres unmarked) [compound 331]	95%	104 mOD	Dead

same assay, conditions: dose response, dilution V1, 5 day

SMILES	5 Day Visual Score V1
C=CCN(CC=C)c1nc(NCc2ccccc2)ns1 [compound 327]	Dead
CN(Cc1ccccc1)c1nc(NCc2ccccc2)ns1 [compound 328]	L1
Cc1cccc(C)c1N1CCN(c2nc(NC3CCCCCCCCCCC3)ns2)CC1 [compound 329]	Dead
CCCCCCCCCCCCCCCCCCN(C)c1nc(NC2CCCCCCCCCCC2)ns1 [compound 330]	Dead
CCCCC(CC)CN(CC(CC)CCCC)c1nc(NC2CCCCCCCCCCC2)ns1 (centres unmarked) [compound 331]	Dead

same assay, conditions: dose response, dilution V2, 5 day

SMILES	5 Day Visual Score V2
C=CCN(CC=C)c1nc(NCc2ccccc2)ns1 [compound 327]	B (low broodsize (25-100 progeny))
CN(Cc1ccccc1)c1nc(NCc2ccccc2)ns1 [compound 328]	L1
Cc1cccc(C)c1N1CCN(c2nc(NC3CCCCCCCCCCC3)ns2)CC1 [compound 329]	Dead
CCCCCCCCCCCCCCCCCCN(C)c1nc(NC2CCCCCCCCCCC2)ns1 [compound 330]	Dead
CCCCC(CC)CN(CC(CC)CCCC)c1nc(NC2CCCCCCCCCCC2)ns1 (centres unmarked) [compound 331]	Dead

same assay, conditions: dose response, dilution V3, 5 day

SMILES	5 Day Visual Score V3
C=CCN(CC=C)c1nc(NCc2ccccc2)ns1 [compound 327]	˜B (moderate broodsize (100-250 progeny))
CCCCC(CC)CN(CC(CC)CCCC)c1nc(NC2CCCCCCCCCCC2)ns1 (centres unmarked) [compound 331]	Dead

same assay, conditions: dose response, dilution V4, 5 day

SMILES	5 Day Visual Score V4
CCN(Cc1ccccc1)c1nc(NCc2ccccc2)ns1 [compound 326]	OK (no effect (˜1000+ progeny))
C=CCN(CC=C)c1nc(NCc2ccccc2)ns1 [compound 327]	OK (no effect (˜1000+ progeny))
Cc1cccc(C)c1N1CCN(c2nc(NC3CCCCCCCCCCC3)ns2)CC1 [compound 329]	OK (no effect (˜1000+ progeny))
CCCCCCCCCCCCCCCCCCN(C)c1nc(NC2CCCCCCCCCCC2)ns1 [compound 330]	OK (no effect (˜1000+ progeny))
CCCCC(CC)CN(CC(CC)CCCC)c1nc(NC2CCCCCCCCCCC2)ns1 (centres unmarked) [compound 331]	OK (no effect (˜1000+ progeny))

same assay, conditions: dose response, dilution V5, 5 day

SMILES	5 Day Visual Score V5
CCN(Cc1ccccc1)c1nc(NCc2ccccc2)ns1 [compound 326]	OK (no effect (˜1000+ progeny))
C=CCN(CC=C)c1nc(NCc2ccccc2)ns1 [compound 327]	OK (no effect (˜1000+ progeny))
CN(Cc1ccccc1)c1nc(NCc2ccccc2)ns1 [compound 328]	< (reduced broodsize (250-500 progeny))
Cc1cccc(C)c1N1CCN(c2nc(NC3CCCCCCCCCCC3)ns2)CC1 [compound 329]	OK (no effect (˜1000+ progeny))
CCCCCCCCCCCCCCCCCCN(C)c1nc(NC2CCCCCCCCCCC2)ns1 [compound 330]	OK (no effect (˜1000+ progeny))
CCCCC(CC)CN(CC(CC)CCCC)c1nc(NC2CCCCCCCCCCC2)ns1 (centres unmarked) [compound 331]	OK (no effect (˜1000+ progeny))

same assay, conditions: dose response, dilution V6, 5 day

SMILES	5 Day Visual Score V6
CCN(Cc1ccccc1)c1nc(NCc2ccccc2)ns1 [compound 326]	OK (no effect (˜1000+ progeny))
C=CCN(CC=C)c1nc(NCc2ccccc2)ns1 [compound 327]	OK (no effect (˜1000+ progeny))
Cc1cccc(C)c1N1CCN(c2nc(NC3CCCCCCCCCCC3)ns2)CC1 [compound 329]	OK (no effect (˜1000+ progeny))
CCCCCCCCCCCCCCCCCCN(C)c1nc(NC2CCCCCCCCCCC2)ns1 [compound 330]	OK (no effect (˜1000+ progeny))
CCCCC(CC)CN(CC(CC)CCCC)c1nc(NC2CCCCCCCCCCC2)ns1 (centres unmarked) [compound 331]	OK (no effect (˜1000+ progeny))
